Measurements reported in patent US8492350B2, “Therapeutic agent for pain disease” (Nippon Zoki Pharmaceutical Co., Ltd., priority 2007, dated 2013).

Experiments:
[1] = disclosed in Patent Document 1 / Example 8 of Japanese Examined Patent Publication No. 63/028,411; cited from earlier work
[2] = test system: Chung model rats which are models of neuropathic pain; assay: Test for analgesic effect (allodynia, von Frey filament, up-down method) in Chung model rats; format: in vivo, rats of Wistar strain; settings: for 50% Reaction Threshold Values, Before Administration: baseline
Procedure: Test for analgesic effect was conducted using Chung model rats which are models of neuropathic pain. Male rats of Wistar strain of 9 weeks age were used as experimental animals and model rats were prepared according to a method of Kim and Chung (Pain, vol. 50, pages 355 to 363, 1992). Thus, when they were in 10 weeks age, rat L5 spinal nerve was exposed and the periphery side of L5 dorsal root ganglion was strongly ligated with 5-0 silk yarn under anesthetizing with pentobarbital (40 mg/kg, intraperitoneal administration) to conduct a nerve damage. The animals were placed in a transparent acrylic cage where the bottom was wire net, 50% reaction threshold values were calculated by an up-down method using a von Frey filament (manufactured by North Coast Medical Inc.) according to a method of Chaplan, et al. (J. Neurosci. Method, vol. 53, pages 55 to 63, 1994) and the effect of the test substance to allodynia was measured. […] In those experimental animals, each group comprised seven animals using the 50% reaction threshold values after the nerve damage as an index and the group constitution was done in such a manner that mean values of a nerve damage control group and of a test substance-administered group were made nearly uniform.
N-acetylneuraminic acid as a test substance was intraperitoneally administered in a single dose (120 mg/kg). A 0.5% CMC-Na (w/v) solution/physiological saline was similarly administered to the nerve damage control group (control group). After 30 minutes from the administration of a test substance, pain tests were conducted and the calculated 50% reaction threshold values were expressed in terms of mean value±standard deviation for each group.
Further, in the same manner as the above test, N-acetylneuraminic acid as a test substance was orally administered in a single dose (300 mg/kg). Injection solvent was administered to a nerve damage control group (control group) in the same manner. After 60 minutes from the administration of a test substance, pain tests were conducted and the 50% reaction threshold values were calculated. Numbers of the animals were eight for each of the nerve damage control group and the test substance-administered group.

Structure (SMILES) | Acute toxicity [1] | 50% reaction threshold value as compared with the nerve damage control group (anti-allodynia action) ([2]; both single intraperitoneal injection and single oral administration) | 50% Reaction Threshold Values, Before Administration ([2]; group later given a single intraperitoneal dose of 120 mg/kg, mean ± standard deviation) [g] | 50% Reaction Threshold Values, Before Administration ([2]; group later given a single oral dose of 300 mg/kg) [g] | 50% Reaction Threshold Values, After 30 minutes from Administration ([2]; single intraperitoneal dose 120 mg/kg, 30 minutes after administration, mean ± standard deviation, *P < 0.05 vs nerve damage control) | 50% Reaction Threshold Values, After 60 minutes from Administration ([2]; single oral dose 300 mg/kg, 60 minutes after administration, *P < 0.05 vs nerve damage control)
CC(=O)N[C@H]1[C@H]([C@H](O)[C@H](O)CO)OC(O)(C(=O)O)C[C@@H]1O (stereo partly shown) [N-Acetylneuraminic Acid, N-acetylneuraminic acid] | very low and safe | significant rise | 2.63 ± 0.21 | 2.75 ± 0.15 | 6.74 ± 1.64* g | 4.81 ± 0.35* g
CC(=O)N[C@H]1[C@H]([C@H](O)[C@H](O)CO)OC(O)(C(=O)[O-])C[C@@H]1O.[Na+] (stereo partly shown) [sodium N-acetylneuraminate] | very lowly toxic | – | – | – | – | –
